From patent publication EP1268431B1 (Wyeth, priority 2000, dated 2001) come the findings set out here.

The subject of assay [1] is Human adenocarcinoma cell line LoVo. The experiment in a line: Cell Based Screen for Inhibitors of Raf Kinase, LoVo cells. The following applies: four days, SRB. The method, then: (§1) • Cell Lines: Human adenocarcinoma cell line LoVo which is known to be growth inhibited by low nM concentrations of a reference standard inhibitor of Ras and human adenocarcinoma cell line CaCo-2, which is known to be growth resistant to the same reference compound. • Cell Media: RPMI 1640 with 10% Fetal Bovine Serum supplemented with L-glutamine and Pennicilin/Streptomycin. • Compounds: Supplied usually as a 10 mM stock in 100% DMSO. • Normal Saline: 150 mM NaCl • Trichloroacetic Acid (TCA): 50% (w/v) in water • Sulforhodamine B (SRB): 0.4% (w/v) in 1% Acetic Acid • Tris Base: 10 mM in water
(§2) Cells are plated at 2000 cells per well for cell line LoVo and 1500 cells for cell line CaCo-2 in 96 well plates. Cells are plated in media (200 µl) and allowed to adhere overnight at 37° C. At 24 hours post plating, compounds are added directly at a volume of 0.5 µl. For the qualitative screen (compounds screened at 25 µM) compound is added directly to cells. For the quantitative screen, compound is first diluted in DMSO to generate concentrations of compound or reference standard of: 1, 5, 10 and 25 µM. It is advisable to make the dilutions in an identical 96 well plate so that compounds may be added using a multichannel micropipettor set at 0.5 µl. The cells are then incubated for four days after which the media is removed using a 12 well manifold by first tipping the plate forward at a 45 degree angle and then inserting the manifold in an upright orientation to prevent the tips of the manifold from disturbing cells at the bottom of the plate. 200 µl of normal saline is then added to each well using an 8 well multichannel pipettor, followed by the careful addition of 50 µl of 50% TCA. The plates are then incubated for 2 hours at 4 ° C, after which the supernatant is removed using the same technique as above and the plated washed twice with 200 µl water. The plates are then air dried and 50 µl of SRB stock solution is carefully added so that the entire bottom of each well is covered. This again may be used using an 8 well multichannel pipettor. The SRB is incubated with fixed cells for 15 minutes at room temperature after which the SRB is removed with the manifold as described above and the plates washed twice with 350 µl of 1% acetic acid per well each time.The plates are then air dried after which the bound SRB is released from protein by the addition of 200 µl of Tris base. Resolubilizing the SRB is aided by placing the plates on a rotator for 15-30 minutes. The absorbance of each well is determined at 550 or 562 nm using a microtiter plate reader.
(§3) Each compound or dilution thereof is performed in triplicate. Outliers are identified by visual inspection of the data. Each plate should have a "0" control (vehicle only).
(§4) Quantitative Assay: A standard curve is constructed by plotting the concentration of compound against the average absorbance calculated at that concentration. A curve is plotted and the concentration at which the curve passes through the 50% the absorbance mark seen in the "0" control well is the IC50 calculated for that compound. […]

Assay [2] concerns human adenocarcinoma cell line CaCo-2. The experiment in a line: Cell Based Screen for Inhibitors of Raf Kinase, CaCo-2 cells. The following applies: CaCo-2, four days, SRB. The method, then:
as §1, §2, §3, §4

Molecules are shown by their SMILES. Bounds are passed on as bounds.

Consider `Cn1ccnc1Sc1ccc(Nc2c(C#N)cnc3cc(-c4ccc(CN5CCC(O)CC5)cc4)ccc23)cc1Cl` [Example 134, 4-{3-chloro-4-[(1-methyl-1H-imidazol-2-yl)sulfanyl]anilino}-7-{4-[(4-hydroxy-1-piperidinyl)methyl]phenyl}-3-quinolinecarbonitrile], for which the IC50 (in general, the midpoint of a concentration-inhibition curve) in assay [1] (Homo sapiens, 96 h) was 4.6 nM; in assay [2] (Homo sapiens, Caco-2, 96 h), more than 1000 nM.

Consider `CN1CCN(Cc2ccc(-c3ccc4c(Nc5ccc(Sc6nccn6C)c(Cl)c5)c(C#N)cnc4c3)cc2)CC1` [Example 135, 4-{3-chloro-4-[(1-methyl-1H-imidazol-2-yl)sulfanyl]anilino}-7-{4-[(4-methyl-1-piperazinyl)methyl]phenyl}-3-quinolinecarbonitrile], for which the IC50 in assay [1] (Homo sapiens, 96 h) is 6.8 nM; in assay [2] (Homo sapiens, Caco-2, 96 h) it was more than 1000 nM.

For the molecule `Cn1ccnc1Sc1ccc(Nc2c(C#N)cnc3cc(-c4ccc(CN5CCN(C(=O)OC(C)(C)C)CC5)cc4)ccc23)cc1Cl` [Example 137, tert-butyl 4-{4-[4-({3-chloro-4-[(1-methyl-1H-imidazol-2-yl)sulfanyl]phenyl}amino)-3-cyano-7-quinolinyl]benzyl}-1-piperazinecarboxylate], the IC50 is 48.5 nM in assay [1] (Homo sapiens, 96 h) and more than 1000 nM in assay [2] (Homo sapiens, Caco-2, 96 h).

With `Cn1ccnc1Sc1ccc(Nc2c(C#N)cnc3cc(-c4ccc(CN5CCOCC5)o4)ccc23)cc1Cl` [Example 154, 4-{3-chloro-4-[(1-methyl-1H-imidazol-2-yl)sulfanyl]anilino}-7-[5-(4-morpholinylmethyl)-2-furyl]-3-quinolinecarbonitrile], the IC50 in assay [1] (Homo sapiens, 96 h) was 6.8 nM; in assay [2] (Homo sapiens, Caco-2, 96 h), more than 1000 nM.

On to `Cn1ccnc1Sc1ccc(Nc2c(C#N)cnc3cc(-c4ccc(CN5CCN(CCO)CC5)o4)ccc23)cc1Cl` [Example 157, 4-{3-chloro-4-[(1-methyl-1H-imidazol-2-yl)sulfanyl]anilino}-7-(5-{[4-(2-hydroxyethyl)-1-piperazinyl]methyl}-2-furyl)-3-quinolinecarbonitrile], for which the IC50 in assay [1] (Homo sapiens, 96 h) is 24.5 nM; in assay [2] (Homo sapiens, Caco-2, 96 h), more than 1000 nM.

With `Cn1ccnc1Sc1ccc(Nc2c(C#N)cnc3cc(-c4ccc(CN5CCC(O)CC5)s4)ccc23)cc1Cl` [Example 159, 4-{3-chloro-4-[(1-methyl-1H-imidazol-2-yl)sulfanyl]anilino}-7-{5-[(4-hydroxy-1-piperidinyl)methyl]-2-thienyl}-3-quinolinecarbonitrile], the IC50 in assay [1] (Homo sapiens, 96 h) amounted to 4.2 nM; in assay [2] (Homo sapiens, Caco-2, 96 h), 710 nM.

Take `Cn1ccnc1Sc1ccc(Nc2c(C#N)cnc3cc(-c4ccc(CN5CCCCC5)s4)ccc23)cc1Cl` [Example 160, 4-{3-chloro-4-[(1-methyl-1H-imidazol-2-yl)sulfanyl]anilino}-7-[5-(1-piperidinylmethyl)-2-thienyl]-3-quinolinecarbonitrile]: the IC50 in assay [1] (Homo sapiens, 96 h) turned out to be 4.1 nM; in assay [2] (Homo sapiens, Caco-2, 96 h), 620 nM.

For the molecule `Cn1ccnc1Sc1ccc(Nc2c(C#N)cnc3cc(-c4ccc(CN5CCN(CCO)CC5)s4)ccc23)cc1Cl` [Example 161, 4-{3-chloro-4-[(1-methyl-1H-imidazol-2-yl)sulfanyl]anilino}-7-(5-{[4-(2-hydroxyethyl)-1-piperazinyl]methyl}-2-thienyl)-3-quinolinecarbonitrile], the IC50 is 5.6 nM in assay [1] (Homo sapiens, 96 h) and more than 1000 nM in assay [2] (Homo sapiens, Caco-2, 96 h).

Take `N#Cc1cnc2cc(-c3cc(CN4CCOCC4)c(CN4CCOCC4)s3)ccc2c1Nc1ccc(Oc2ccccc2)cc1` [Example 168, 7-[4,5-bis(4-morpholinylmethyl)-2-thienyl]-4-(4-phenoxyanilino)-3-quinolinecarbonitrile]: the IC50 turned out to be 2000 nM in assay [1] (Homo sapiens, 96 h) and 4600 nM in assay [2] (Homo sapiens, Caco-2, 96 h).

As for `Cn1ccnc1Sc1ccc(Nc2c(C#N)cnc3cc(-c4ccc(C=O)cn4)ccc23)cc1Cl` [Example 170, 4-{3-chloro-4-[(1-methyl-1H-imidazol-2-yl)sulfanyl]anilino}-7-(5-formyl-2-pyridinyl)-3-quinolinecarbonitrile], the IC50 was 50 nM in assay [1] (Homo sapiens, 96 h); 5000 nM in assay [2]; more than 10000 nM in assay [2] (Homo sapiens, Caco-2, 96 h).

For `Cn1ccnc1Sc1ccc(Nc2c(C#N)cnc3cc(-c4ccc(CN5CCC(O)CC5)cn4)ccc23)cc1Cl` [Example 172, 4-{3-chloro-4-[(1-methyl-1H-imidazol-2-yl)sulfanyl]anilino}-7-{5-[(4-hydroxy-1-piperidinyl)methyl]-2-pyridinyl}-3-quinolinecarbonitrile], the IC50 in assay [1] (Homo sapiens, 96 h) was 7.9 nM; in assay [2] (Homo sapiens, Caco-2, 96 h), more than 1000 nM.

On to `Cn1ccnc1Sc1ccc(Nc2c(C#N)cnc3cc(-c4ccc(CN5CCC(N6CCCC6)CC5)cn4)ccc23)cc1Cl` [Example 173, 4-{3-chloro-4-[(1-methyl-1H-imidazol-2-yl)sulfanyl]anilino}-7-(5-{[4-(1-pyrrolidinyl)-1-piperidinyl]methyl}-2-pyridinyl)-3-quinolinecarbonitrile], for which the IC50 in assay [1] (Homo sapiens, 96 h) was 25 nM; in assay [2] (Homo sapiens, Caco-2, 96 h), more than 1000 nM.

Take `Cn1ccnc1Sc1ccc(Nc2c(C#N)cnc3cc(-c4ccc(CN5CCC(C(=O)O)CC5)cn4)ccc23)cc1Cl` [Example 175, 1-{[6-(4-{3-chloro-4-[(1-methyl-1H-imidazol-2-yl)sulfanyl]anilino}-3-cyano-7-quinolinyl)-3-pyridinyl]methyl}-4-piperidinecarboxylic acid]: the IC50 in assay [1] (Homo sapiens, 96 h) was 330 nM; in assay [2] (Homo sapiens, Caco-2, 96 h), more than 1000 nM.

As to `Cn1ccnc1Sc1ccc(Nc2c(C#N)cnc3cc(-c4ccc(CN5CCOCC5)cn4)ccc23)cc1Cl` [Example 187, 4-{3-chloro-4-[(1-methyl-1H-imidazol-2-yl)sulfanyl]anilino}-7-[5-(4-morpholinylmethyl)-2-pyridinyl]-3-quinolinecarbonitrile], the IC50 was 9 nM in assay [1]; 5500 nM in assay [2]; more than 10000 nM in assay [2] (Homo sapiens, Caco-2, 96 h).

In the case of `CN1CCN(Cc2ccc(-c3ccc4c(Nc5ccc(Sc6nccn6C)c(Cl)c5)c(C#N)cnc4c3)nc2)CC1` [Example 189, 4-{3-chloro-4-[(1-methyl-1H-imidazol-2-yl)sulanyl]anilino}-7-{5-[(4-methyl-1-piperazinyl)methyl]-2-pyridinyl}-3-quinolinecarbonitrile], the IC50 in assay [1] (Homo sapiens, 96 h) came to 6 nM; in assay [2] (Homo sapiens, Caco-2, 96 h), 1250 nM.

In the case of `CN1CCN(c2ccc(-c3ccc4c(Nc5ccc(Sc6nccn6C)c(Cl)c5)c(C#N)cnc4c3)cn2)CC1` [Example 196, 4-{3-chloro-4-[(1-methyl-1H-imidazol-2-yl)sulfanyl]anilino}-7-[6-(4-methyl-1-piperazinyl)-3-pyridinyl]-3-quinolinecarbonitrile], the IC50 was less than 5 nM in assay [1] (Homo sapiens, 96 h); 2.9 nM in assay [1]; 550 nM in assay [2]; 1100 nM in assay [2] (Homo sapiens, Caco-2, 96 h).

Regarding `Cn1ccnc1Sc1ccc(Nc2c(C#N)cnc3cc(-c4cccc(CN5CCOCC5)n4)ccc23)cc1Cl` [Example 199, 4-{3-chloro-4-[(1-methyl-1H-imidazol-2-yl)sulfanyl]anilino}-7-[6-(4-morpholinylmethyl)-2-pyridinyl]-3-quinolinecarbonitrile], the IC50 was 9.5 nM in assay [1] (Homo sapiens, 96 h) and more than 1000 nM in assay [2] (Homo sapiens, Caco-2, 96 h).

Consider `CCN1CCN(Cc2cccc(-c3ccc4c(Nc5ccc(Sc6nccn6C)c(Cl)c5)c(C#N)cnc4c3)n2)CC1` [Example 201, 4-{3-chloro-4-[(1-methyl-1H-imidazol-2-yl)sulfanyl]anilino}-7-{6-[(4-ethyl-1-piperazinyl)methyl]-2-pyridinyl}-3-quinolinecarbonitrile], for which the IC50 in assay [1] (Homo sapiens, 96 h) was 8.4 nM; in assay [2] (Homo sapiens, Caco-2, 96 h) it was more than 1000 nM.

In the case of `CN1CCN(Cc2cccc(-c3ccc4c(Nc5ccc(Sc6nccn6C)c(Cl)c5)c(C#N)cnc4c3)n2)CC1` [Example 202, 4-{3-chloro-4-[(1-methyl-1H-imidazol-2-yl)sulfanyl]anilino}-7-{6-[(4-methyl-1-piperazinyl)methyl]-2-pyridinyl}-3-quinolinecarbonitrile], the IC50 is 6.5 nM in assay [1] (Homo sapiens, 96 h) and more than 1000 nM in assay [2] (Homo sapiens, Caco-2, 96 h).

On to `Cn1ccnc1Sc1ccc(Nc2c(C#N)cnc3cc(-c4cc(CN5CCOCC5)ccn4)ccc23)cc1Cl` [Example 203, 4-({3-chloro-4-[(1-methyl-1H-imidazol-2-yl)sulfanyl]phenyl}amino)-7-[4-(4-morpholinylmethyl)-2-pyridinyl]-3-quinolinecarbonitrile], for which the IC50 in assay [1] (Homo sapiens, 96 h) is 9.7 nM; in assay [2] (Homo sapiens, Caco-2, 96 h), more than 1000 nM.
